Values of other authors, collected in US20120083452A1, “Topical Anesthetic Uses of Szeto-Schiller Peptides” (priority 2010, published 2012).
Square brackets hold non-standard residues; d marks the D form. Ends that are not written are not given here. Dmt = Cc1cc(O)cc(C)c1C[C@H](N)C(=O)O

Columns and labels:
isolated mitochondria = settings: for MPP+-induced inhibition of oxygen consumption: MPP+ (1-methyl-4-phenylpyridium)
mice = mice studies
[1] = compared with SS-02
LDL = settings: compared with SS-02

| Substance | MPP+-induced inhibition of ATP production (isolated mitochondria) | MPP+-induced mitochondrial swelling (isolated mitochondria) | MPP+-induced inhibition of oxygen consumption (isolated mitochondria) | treatment of Parkinson's Disease (PD) or Amyotrophic Lateral Sclerosis (ALS) (mice) | scavenging H2O2 [1] | inhibiting LDL oxidation (LDL) |
| --- | --- | --- | --- | --- | --- | --- |
| Phe-D-Arg-Phe-Lys-NH2 (F[dR]FK-NH2; N-terminus assumed; SMILES N=C(N)NCCC[C@@H](NC(=O)[C@@H](N)Cc1ccccc1)C(=O)N[C@@H](Cc1ccccc1)C(=O)N[C@@H](CCCCN)C(N)=O) [SS-20] | prevented | prevented | prevented | may be effective | eliminated the scavenging ability | – |
| D-Arg-2′,6′-Dmt-Lys-Phe-NH2 ([dR][Dmt]KF-NH2) [SS-31] | prevented | prevented | prevented | may be effective | as effective as SS-02 | as effective as SS-02 |
